Source: PMC6904270, “A High-Throughput Assay for Monitoring Ubiquitination in Real Time” (Frontiers in Chemistry, 2019)

Target: T1, E1 ubiquitin-activating enzyme (UBE1) (Homo sapiens, UniProt P22314)
T1 construct: gene UBA1
T1 sequence (P22314 2-1058): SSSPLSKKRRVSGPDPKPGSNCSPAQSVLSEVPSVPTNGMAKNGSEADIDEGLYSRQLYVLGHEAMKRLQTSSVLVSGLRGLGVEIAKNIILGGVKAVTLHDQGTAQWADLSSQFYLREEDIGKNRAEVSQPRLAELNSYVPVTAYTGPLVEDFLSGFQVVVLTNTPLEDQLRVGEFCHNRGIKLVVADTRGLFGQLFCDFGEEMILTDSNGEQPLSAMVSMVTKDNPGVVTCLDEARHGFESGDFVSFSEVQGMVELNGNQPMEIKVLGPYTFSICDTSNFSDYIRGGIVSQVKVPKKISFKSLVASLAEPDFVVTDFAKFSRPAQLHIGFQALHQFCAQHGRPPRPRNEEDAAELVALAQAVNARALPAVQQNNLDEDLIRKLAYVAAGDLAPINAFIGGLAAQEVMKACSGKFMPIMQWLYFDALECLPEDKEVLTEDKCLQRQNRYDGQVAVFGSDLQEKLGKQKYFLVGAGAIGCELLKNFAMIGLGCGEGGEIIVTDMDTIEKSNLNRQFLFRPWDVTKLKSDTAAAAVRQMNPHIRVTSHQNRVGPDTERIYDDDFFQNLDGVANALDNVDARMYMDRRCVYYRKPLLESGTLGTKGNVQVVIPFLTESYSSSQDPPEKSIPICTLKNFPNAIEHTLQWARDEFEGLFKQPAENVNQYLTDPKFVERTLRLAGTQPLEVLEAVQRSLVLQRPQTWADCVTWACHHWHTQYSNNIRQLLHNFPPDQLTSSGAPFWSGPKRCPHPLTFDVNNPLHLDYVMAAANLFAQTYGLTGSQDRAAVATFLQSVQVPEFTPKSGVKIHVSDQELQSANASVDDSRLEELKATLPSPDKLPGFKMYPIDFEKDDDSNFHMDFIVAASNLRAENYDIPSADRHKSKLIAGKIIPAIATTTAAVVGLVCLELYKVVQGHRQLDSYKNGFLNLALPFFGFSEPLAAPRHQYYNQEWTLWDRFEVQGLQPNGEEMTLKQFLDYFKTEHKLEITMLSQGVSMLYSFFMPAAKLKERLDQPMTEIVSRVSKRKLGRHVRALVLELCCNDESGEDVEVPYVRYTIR
Experiment: fluorescence polarization of E1~TAMRA-Ub complex formation with purified E1 (UbiReal), endpoint dose-response
Type: biochemical

IC50: 9.15 µM
SMILES: CCOC(=O)c1ccc(N2NC(=O)C(=Cc3ccc([N+](=O)[O-])o3)C2=O)cc1 [PYR-41]
